{"source": "paper PMC8176454", "about": "“Synthesis and Assessment of Novel Probes for Imaging Tau Pathology in Transgenic Mouse and Rat Models” (ACS Chemical Neuroscience, 2021)", "key": {"[1]": {"tested_on": "tau aggregates in DRG neurons from P301S tau mice", "test": "Fluorescence binding to cultured DRG neurons from P301S tau transgenic mice", "assay_type": "cell-based, mouse", "details": "for IC50: Mus musculus, DRG neuron", "experimental": "P301S tau mice with aggregated tau in the brain also express aggregated tau in DRG neurons.[24]−[26] […] To estimate the apparent affinity of LM229 to tau aggregates directly in living neurons, we imaged live neurons after 20 min incubation with various concentrations of LM229 (Figure 4A). […] LM229 binding was specific to neurons with aggregated tau, as detected with the AT100 antibody[18],[22],[23],[26] (Figure 4D). […] Although PBB3 also bound to DRG neurons with tau aggregates at 30–100 μM, it was not possible to derive an IC50 value because of its low affinity in this assay (Supporting Information, Figure S2). […] The shift from nanomolar to micromolar affinity between binding to heparin tau fibrils and tau aggregates in P301S tau neurons may reflect the different environment and assay conditions or the different conformations that tau aggregates assume in neurons compared to heparin–tau complexes.[27]\nNeurons were prepared from phenotypic end stage 5–7 month old P301S tau mice and cultured as described previously.[24] For live staining, neurons cultured for 2 days were washed in PBS and incubated with various concentrations of LM229 for 20 min at room temperature. After three washes in PBS, neurons were imaged on a Leica DMI 4000B microscope using a DFC3000 G camera and application suite 4.0.0.11706. The dead cell stain Propidium iodide (1 μg/mL) was added to ensure that only live cells were imaged. Phase contrast images were taken to show viable neurons. For fixed cell staining, neurons were fixed for 20 min at room temperature in 4% paraformaldehyde, washed in PBS, and permeabilized in PBS containing 0.3% Triton X-100. LM299 was added as described for live cells, and cells were probed with AT100 (1:1000, MN1060) followed by anti-mouse AlexaFluor568 secondary antibody. Cultures were co-stained with the nuclear dye DAPI (blue) to reveal total cells. […]\nBinding to cultured neurons from P301S tau transgenic mice\nDRG were incubated with the indicated concentrations of LM229 or PBB3 for 20 minutes at room temperature, washed 3 times in PBS, and imaged on a Leica DMI 4000B microscope using a Leica DFC3000 G camera and the Leica application suite 4.0.0.11706. Fluorescence intensity was measured in 10-16 neurons each from 3 independent cultures using Image J (imagej.nih.gov/ij/). Results shown are mean ± SD. Non linear least squares curve fitting was applied using http://faculty.gvsu.edu/carlsont/232lab/nonlin2.html. No Km value was […]\nFigure S2: Binding of LM229 and PBB3 to DRG neurons with tau aggregates […]\n(1 picture or pasted object on this page, not shown here)"}, "[2]": {"target": "T1, 3R tau151-391 aggregates in cortical sections from SHR24 rats (Homo sapiens, UniProt P10636)", "T1 construct": "tissue AXON Neuroscience; host or cells: brain (cortex) sections of SHR24 transgenic rats", "T1 sequence (P10636 151-360 isoform P10636-5)": "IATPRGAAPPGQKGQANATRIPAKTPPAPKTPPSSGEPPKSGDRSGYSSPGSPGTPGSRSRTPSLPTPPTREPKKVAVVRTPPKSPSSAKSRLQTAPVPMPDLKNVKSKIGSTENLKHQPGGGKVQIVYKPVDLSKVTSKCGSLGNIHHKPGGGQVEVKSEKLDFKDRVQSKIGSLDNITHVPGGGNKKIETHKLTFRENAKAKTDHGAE", "test": "Binding to SHR24 transgenic rat brain sections", "details": "50 μM, colocalization with AT8", "text": "(§1) Since future PET studies for development of these compounds would require kinetic modeling for their assessment in vivo, we tested their performance in tau transgenic rats. Rat brains and blood volumes are about 6- and 10-fold larger, respectively, than those of mice and thus enable higher resolution imaging and ample volume for repeated blood sampling. We used two transgenic rat lines expressing human-truncated tau comprising the proline-rich region and either three microtubule binding domains (3R tau151-391, SH24)[28] or four microtubule binding domains (4R tau151-391, SHR72).[29] […] However, compared to the SHR24 rat brain sections, there were less inclusions detected, which seems to indicate the compounds have preferential binding toward the three repeat forms of tau in these rat models.\n(§2) Fresh frozen rat brain coronal sections (10 μm) were stored on slides at −80 °C until use. Sections were fixed in ice cold acetone for 10 min and air-dried and then rehydrated twice for 5 min with buffer (10 mM PBS with 0.1% Triton X-100) before application of 5% bovine serum albumin for 1 h and two more 5 min buffer washes. Primary monoclonal antibody AT8 (Thermo MN1020, 1:1000) was added overnight at 4 °C, followed by 1 h incubation with a mixture of secondary AlexaFluor555 goat anti-mouse antibody (1:1000) and 50 μM PBB3 or LM229 in 50:50 ethanol/buffer. Following two 5 min washes in buffer, the slides were air-dried and cover-slipped using Fluorsave before analysis. The green autofluorescence of PBB3 and LM229 was visualized using a 488 nm filter and fluorescence of AT8 using a 568 nm filter on a Leica DM6000 microscope."}, "[3]": {"tested_on": "3R tau151-391 aggregates in cortical sections from SHR24 rats", "test": "Binding to SHR24 transgenic rat brain sections", "details": "SHR24 (3R) vs SHR72 (4R) brain tissue", "text": "as §1, §2"}, "[4]": {"target": "tau aggregates in human globus pallidus/putamen from PSP subjects (Homo sapiens, UniProt P10636)", "sequence (P10636 561-698 limits assumed)": "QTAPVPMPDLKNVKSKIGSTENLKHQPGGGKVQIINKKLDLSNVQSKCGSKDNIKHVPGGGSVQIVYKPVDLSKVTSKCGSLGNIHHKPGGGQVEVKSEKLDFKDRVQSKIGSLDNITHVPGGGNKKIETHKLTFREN", "test": "Staining of post-mortem PSP brain tissue", "details": "colocalized with AT8", "experimental": "To further validate LM229 as a potential radiotracer for translational research, we investigated its binding to tau aggregates in human globus pallidus/putamen from progressive supranuclear palsy (PSP) subjects (Figure 7) and its selectivity for tau over β-amyloid pathology in AD frontal cortex sections (Figure 8). […]\nbuffer) for 1 h at room temperature. Following 3 washes in PBS/0.1% Triton X-100, 50 µM LM229 (diluted in 1:1 blocking buffer/ethanol) was then added for 1 h at room temperature. Nuclei were stained with DAPI (0.1mg/ml for 10 min), washed and tissues mounted in FluorSaveTM prior to analysis using fluorescence […]\nBinding affinity of all compounds with tau fibrils\nMicroscale Thermophoresis was first used to screen whether there were interaction between the compounds and tau fibrils. […] With each compound, two concentrations (1µM and 1nM) were used to mix with 100nM tau fibrils and then loaded to the MST instrument to read out the MST data curve. […]\nDRG were incubated with the indicated concentrations of LM229 or PBB3 for 20 minutes at room temperature, washed 3 times in PBS, and imaged on a Leica DMI 4000B microscope using a Leica DFC3000 G camera and the Leica application suite 4.0.0.11706. Fluorescence intensity was measured in 10-16 neurons each from 3 independent cultures using Image J (imagej.nih.gov/ij/). […]"}, "[5]": {"target": "β-amyloid in AD frontal cortex sections (Homo sapiens, UniProt P05067)", "sequence (P05067 672-711 limits assumed)": "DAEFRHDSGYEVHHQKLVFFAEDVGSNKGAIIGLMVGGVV", "test": "Staining of post-mortem AD frontal cortex sections, β-amyloid", "text": "To further validate LM229 as a potential radiotracer for translational research, we investigated its binding to tau aggregates in human globus pallidus/putamen from progressive supranuclear palsy (PSP) subjects (Figure 7) and its selectivity for tau over β-amyloid pathology in AD frontal cortex sections (Figure 8). […] In slices from frontal cortex of AD brains, LM229 gave rise to strong signal (Figure 8A), which colocalized with AT8 immunofluorescence (Figure 8B)."}}, "note": "Where two headings read alike, the source gives them in different places."}
{"smiles": "CNc1ccc(/C=C/C=C/c2nc3cc(F)c(O)cc3s2)cn1", "note": "[LM229]", "values": [{"measurement": "Retention of fluorescence in neurons after exposure and washes", "setting": "[1]; 3 days after exposure", "value": "still retained albeit to a lower intensity"}, {"measurement": "IC50", "setting": "[1]; 20 min, live DRG neurons, 20 min incubation, read-out: IC50, apparent affinity to tau aggregates in live neurons", "value": "2700 ± 700", "unit": "nM"}, {"measurement": "IC50", "setting": "[1]; fixed DRG neurons, figure legend value, read-out: IC50, fixed neurons (Figure 4B)", "value": "1670 ± 280", "unit": "nM"}, {"measurement": "IC50", "setting": "[1]; fixed, permeabilized DRG neurons, read-out: IC50, fixed and permeabilized neurons", "value": "1700 ± 300", "unit": "nM"}, {"measurement": "IC50", "setting": "[1]; live DRG neurons, figure legend value, read-out: IC50, live neurons (Figure 4B)", "value": "2970 ± 730", "unit": "nM"}, {"measurement": "Cell permeability", "setting": "[1]; live vs fixed/permeabilized DRG neurons", "value": "highly cell permeable"}, {"measurement": "Binding to pathological aggregated tau in SHR24 rat brain sections", "setting": "[2]", "value": "bound with similar properties to pathological aggregated tau"}, {"measurement": "Preference between 3R and 4R tau inclusions in rat models", "setting": "[3]", "value": "preferential binding toward the 3R tau inclusions"}, {"measurement": "Signal on PSP sections", "setting": "[4]", "value": "intense signal"}, {"measurement": "Fluorescence intensity colocalized with Aβ relative to tau", "setting": "[5]", "value": "lower"}]}
